Source: patent US20220289765A1, “CRYSTAL OF CARCINOGENIC FUSED KINASE INHIBITOR AND APPLICATIONS THEREOF” (Simcere Pharmaceutical Co., Ltd., priority 2019, published 2022)
Where two headings read alike, the source gives them in different places.

How the values were obtained:
[1] = target: T1, ALK (Homo sapiens, UniProt Q9UM73); assay: Kinase inhibitory activity (33P-ATP filtration-binding, Reaction Biology Corp.); format: biochemical; conditions: read-out: Half Inhibitory Concentrations of Kinases IC50, ALK
T1 construct: purchased Reaction Biology Corp
Procedure: The inhibitory activity tests of compounds against kinases such as TrkA, TrkC, ALK, Ros1 were completed in Reaction Biology Corp. Certain concentrations of substrate, cofactors, kinases and test compounds (10 doses, 3-fold serial dilutions, 2% DMSO final concentration) were sequentially added to the reaction buffer (20 mM Hepes (pH 7.5), 10 mM MgCl2, 1 mM EGTA, 0.02% Brij35, 0.02 mg/mL BSA, 0.1 mM Na3VO4, 2 mM DTT, 1% DMSO), and mixed well. The resulting mixture was incubated at room temperature for 20 minutes, and a certain concentration of 33P-ATP was added to the reaction mixture to initiate the reaction, followed by incubation at room temperature for 120 minutes. Finally, the radioactivity of the reactants was detected by a filtration-binding method. The final kinase activity was expressed by the ratio of the remaining kinase activity in the test sample to the kinase activity of the DMSO control group. The dose-effect curve was fitted by GraphPad software and the IC50 values were calculated.

[2] = system: Ba/F3 SLC34A2-ROS1-G2032R; assay: Cell proliferation inhibition (CellTiter-Glo, 72 h); format: cell-based; conditions: Mus musculus, BaF3, read-out: Half Inhibitory Concentrations of Cells IC50, Ba/F3 SLC34A2-ROS1-G2032R
[3] = system: BaF3 ETV6-NTRK3-G623R; assay: as above; format: cell-based; conditions: Mus musculus, read-out: Half Inhibitory Concentrations of Cells IC50, BaF3 ETV6-NTRK3-G623R
[4] = target: T2, TrkA-G667C (Homo sapiens, UniProt P04629, G667C); assay: Kinase inhibitory activity (33P-ATP filtration-binding, Reaction Biology Corp.); format: biochemical; conditions: read-out: Half Inhibitory Concentrations of Kinases IC50, TrkA-G667C
T2 construct: purchased Reaction Biology Corp
T2 sequence (P04629 33-796 G667C): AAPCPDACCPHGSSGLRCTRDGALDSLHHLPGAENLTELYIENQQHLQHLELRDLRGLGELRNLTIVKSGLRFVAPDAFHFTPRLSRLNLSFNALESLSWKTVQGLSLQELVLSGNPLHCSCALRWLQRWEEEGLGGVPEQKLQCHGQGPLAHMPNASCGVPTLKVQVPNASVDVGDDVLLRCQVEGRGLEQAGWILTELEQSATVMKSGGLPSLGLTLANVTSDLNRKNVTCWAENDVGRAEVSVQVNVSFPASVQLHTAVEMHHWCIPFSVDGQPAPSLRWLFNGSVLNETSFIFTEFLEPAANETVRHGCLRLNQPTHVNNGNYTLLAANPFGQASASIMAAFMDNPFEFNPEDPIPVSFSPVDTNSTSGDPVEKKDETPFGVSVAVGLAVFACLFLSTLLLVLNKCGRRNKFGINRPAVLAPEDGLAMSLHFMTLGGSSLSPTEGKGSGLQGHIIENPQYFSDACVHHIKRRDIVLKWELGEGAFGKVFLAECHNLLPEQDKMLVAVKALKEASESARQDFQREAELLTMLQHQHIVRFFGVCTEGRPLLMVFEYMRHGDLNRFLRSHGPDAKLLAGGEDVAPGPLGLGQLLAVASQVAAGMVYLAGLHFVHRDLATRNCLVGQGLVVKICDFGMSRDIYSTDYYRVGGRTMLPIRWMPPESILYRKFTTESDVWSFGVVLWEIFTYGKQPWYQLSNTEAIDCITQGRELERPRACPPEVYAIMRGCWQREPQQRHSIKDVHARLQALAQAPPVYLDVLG
Procedure: (§1) The resulting mixture was incubated at room temperature for 20 minutes, and a certain concentration of 33P-ATP was added to the reaction mixture to initiate the reaction, followed by incubation at room temperature for 120 minutes. Finally, the radioactivity of the reactants was detected by a filtration-binding method. The final kinase activity was expressed by the ratio of the remaining kinase activity in the test sample to the kinase activity of the DMSO control group. The dose-effect curve was fitted by GraphPad software and the IC50 values were calculated.

[5] = target: T3, TrkA-G595R (Homo sapiens, UniProt P04629, G595R); assay: as above; format: biochemical; conditions: read-out: Half Inhibitory Concentrations of Kinases IC50, TrkA-G595R
T3 construct: purchased Reaction Biology Corp
T3 sequence (P04629 33-796 G595R): as the sequence (P04629 33-796 G667C) above, with G563R, C635G counted along it
Procedure: as §1

[6] = target: T4, Ros-G2032R (Homo sapiens, UniProt P08922, G2032R); assay: as above; format: biochemical; conditions: read-out: Half Inhibitory Concentrations of Kinases IC50, Ros-G2032R
T4 construct: purchased Reaction Biology Corp
T4 sequence (P08922 28-2347 G2032R): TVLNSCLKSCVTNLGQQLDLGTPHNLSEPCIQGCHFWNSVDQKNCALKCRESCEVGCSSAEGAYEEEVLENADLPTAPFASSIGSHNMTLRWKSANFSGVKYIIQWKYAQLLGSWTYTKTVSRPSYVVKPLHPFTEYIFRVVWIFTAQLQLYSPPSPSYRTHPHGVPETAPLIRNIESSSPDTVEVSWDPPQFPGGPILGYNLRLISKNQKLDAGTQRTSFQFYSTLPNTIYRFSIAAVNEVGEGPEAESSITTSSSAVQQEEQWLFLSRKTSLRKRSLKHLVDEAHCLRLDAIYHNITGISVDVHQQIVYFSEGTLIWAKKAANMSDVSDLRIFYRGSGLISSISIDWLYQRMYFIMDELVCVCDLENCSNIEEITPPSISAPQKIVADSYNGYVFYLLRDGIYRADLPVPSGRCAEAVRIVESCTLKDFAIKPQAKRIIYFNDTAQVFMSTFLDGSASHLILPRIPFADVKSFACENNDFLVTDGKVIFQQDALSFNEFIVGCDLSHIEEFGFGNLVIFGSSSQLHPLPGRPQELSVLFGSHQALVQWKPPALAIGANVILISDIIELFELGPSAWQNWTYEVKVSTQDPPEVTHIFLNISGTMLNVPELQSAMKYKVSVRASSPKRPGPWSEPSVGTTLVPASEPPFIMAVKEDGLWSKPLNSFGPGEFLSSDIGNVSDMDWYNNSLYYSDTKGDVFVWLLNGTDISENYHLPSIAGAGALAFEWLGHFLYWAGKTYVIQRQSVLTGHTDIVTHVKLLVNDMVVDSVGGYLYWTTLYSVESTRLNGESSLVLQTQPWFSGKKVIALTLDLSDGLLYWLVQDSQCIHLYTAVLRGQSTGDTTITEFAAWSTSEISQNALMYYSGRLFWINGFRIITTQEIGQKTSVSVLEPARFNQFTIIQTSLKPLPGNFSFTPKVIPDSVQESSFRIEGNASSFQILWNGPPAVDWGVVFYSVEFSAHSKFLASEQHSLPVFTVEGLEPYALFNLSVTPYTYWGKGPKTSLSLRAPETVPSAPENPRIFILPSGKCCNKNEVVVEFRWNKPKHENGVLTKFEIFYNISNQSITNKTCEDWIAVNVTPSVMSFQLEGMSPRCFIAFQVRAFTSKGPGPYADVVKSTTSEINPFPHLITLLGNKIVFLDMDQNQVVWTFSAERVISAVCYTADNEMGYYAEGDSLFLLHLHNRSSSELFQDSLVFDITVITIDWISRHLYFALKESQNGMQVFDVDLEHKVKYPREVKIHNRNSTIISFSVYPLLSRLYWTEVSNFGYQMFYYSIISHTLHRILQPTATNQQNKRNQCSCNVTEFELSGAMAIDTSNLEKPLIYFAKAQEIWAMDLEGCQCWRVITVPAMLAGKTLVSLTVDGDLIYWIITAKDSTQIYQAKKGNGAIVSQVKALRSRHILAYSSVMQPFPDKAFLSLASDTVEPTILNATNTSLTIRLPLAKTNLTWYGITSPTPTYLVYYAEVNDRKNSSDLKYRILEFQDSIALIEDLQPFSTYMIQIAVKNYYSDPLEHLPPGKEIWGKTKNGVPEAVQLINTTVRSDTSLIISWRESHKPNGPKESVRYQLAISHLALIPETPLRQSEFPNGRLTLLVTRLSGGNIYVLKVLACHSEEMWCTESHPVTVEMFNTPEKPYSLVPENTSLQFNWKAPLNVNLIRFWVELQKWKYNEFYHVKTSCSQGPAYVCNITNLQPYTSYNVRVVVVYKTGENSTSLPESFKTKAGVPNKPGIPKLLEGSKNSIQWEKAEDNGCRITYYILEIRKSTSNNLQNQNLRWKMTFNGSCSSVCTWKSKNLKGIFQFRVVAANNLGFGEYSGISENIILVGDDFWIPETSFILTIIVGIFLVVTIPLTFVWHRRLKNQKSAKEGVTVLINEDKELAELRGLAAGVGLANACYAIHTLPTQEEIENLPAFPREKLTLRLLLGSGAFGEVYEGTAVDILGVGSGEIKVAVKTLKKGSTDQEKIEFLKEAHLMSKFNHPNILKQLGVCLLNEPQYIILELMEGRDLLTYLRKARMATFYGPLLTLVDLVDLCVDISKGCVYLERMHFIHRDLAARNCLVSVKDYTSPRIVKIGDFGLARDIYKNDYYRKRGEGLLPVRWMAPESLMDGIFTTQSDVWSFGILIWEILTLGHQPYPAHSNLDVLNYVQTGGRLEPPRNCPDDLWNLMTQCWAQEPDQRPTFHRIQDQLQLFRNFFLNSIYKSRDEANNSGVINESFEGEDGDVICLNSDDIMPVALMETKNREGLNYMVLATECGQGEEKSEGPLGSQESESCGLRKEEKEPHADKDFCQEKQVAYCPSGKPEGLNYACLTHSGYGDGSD
Procedure: as §1

[7] = target: T5, TrkA (Homo sapiens, UniProt P04629); assay: as above; format: biochemical; conditions: read-out: Half Inhibitory Concentrations of Kinases IC50, TrkA
T5 construct: purchased Reaction Biology Corp
T5 sequence (P04629 33-796): as the sequence (P04629 33-796 G667C) above, with C635G counted along it
Procedure: as §1

[8] = target: T6, TrkC (Homo sapiens, UniProt Q16288); assay: as above; format: biochemical; conditions: read-out: Half Inhibitory Concentrations of Kinases IC50, TrkC
T6 construct: purchased Reaction Biology Corp
T6 sequence (Q16288 32-839): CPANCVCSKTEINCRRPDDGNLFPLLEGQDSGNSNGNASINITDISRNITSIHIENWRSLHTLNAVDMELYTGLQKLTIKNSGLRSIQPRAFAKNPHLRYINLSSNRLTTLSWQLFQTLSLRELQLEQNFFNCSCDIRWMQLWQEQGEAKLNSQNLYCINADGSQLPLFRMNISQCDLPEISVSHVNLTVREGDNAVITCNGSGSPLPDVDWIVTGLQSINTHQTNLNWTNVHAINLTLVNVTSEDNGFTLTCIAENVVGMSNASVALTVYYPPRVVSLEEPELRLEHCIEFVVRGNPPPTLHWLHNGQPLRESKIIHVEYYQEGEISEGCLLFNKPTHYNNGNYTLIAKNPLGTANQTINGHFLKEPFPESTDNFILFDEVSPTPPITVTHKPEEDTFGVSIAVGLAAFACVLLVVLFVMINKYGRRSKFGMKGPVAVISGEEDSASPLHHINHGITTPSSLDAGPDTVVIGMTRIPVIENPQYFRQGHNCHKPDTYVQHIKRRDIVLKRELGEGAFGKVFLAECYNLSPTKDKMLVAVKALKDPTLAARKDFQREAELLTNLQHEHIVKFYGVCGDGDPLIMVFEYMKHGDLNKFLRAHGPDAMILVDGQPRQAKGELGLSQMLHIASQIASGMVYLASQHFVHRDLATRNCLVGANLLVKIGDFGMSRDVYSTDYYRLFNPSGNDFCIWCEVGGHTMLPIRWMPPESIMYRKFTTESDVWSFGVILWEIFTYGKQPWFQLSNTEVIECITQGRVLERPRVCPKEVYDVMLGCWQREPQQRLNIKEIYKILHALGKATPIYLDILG
Procedure: as §1

[9] = target: T7, Ros1 (Homo sapiens, UniProt P08922); assay: as above; format: biochemical; conditions: read-out: Half Inhibitory Concentrations of Kinases IC50, Ros1
T7 construct: purchased Reaction Biology Corp
T7 sequence (P08922 28-2347): as the sequence (P08922 28-2347 G2032R) above, with R2005G counted along it
Procedure: as §1

[10] = Cassette pharmacokinetic test in mice (plasma, brain, CSF); format: in vivo, male CD-1 mice; conditions: cassette; for AUC(0-inf): read-out: Area under Curve AUC0-inf
Procedure: The pharmacokinetic behaviors of the compounds of the present invention in mice were studied and the pharmacokinetic properties thereof were evaluated.

[11] = system: human lung cancer LU-01-0414 subcutaneous xenograft tumor; assay: Efficacy test in mice, LU-01-0414 subcutaneous xenograft; format: in vivo, BALB/c mouse; conditions: PO, 14 days, LU-01-0414 xenograft
Procedure: The in vivo efficacy of test drugs such as the compound of Formula (I) on human lung cancer LU-01-0414 subcutaneous xenograft tumor in a BALB/c mouse model was evaluated.
The compounds were prepared into clear solutions using 5% DMSO+10% solutol+85% water as a solvent for administration in PO (gavage) groups.
The tumor diameters were measured twice a week using a vernier caliper. The formula for calculating the tumor volume is: V=0.5×a×b^2, wherein a and b represent the long diameter and the short diameter of the tumor, respectively. The antitumor efficacy of the compounds was evaluated with TGI (%), which reflects the inhibition rate of tumor growth.
Statistical analysis was performed using SPSS software based on relative tumor volume and tumor weight at the end of the experiment. Comparisons among multiple groups were analyzed by one-way ANOVA. If the variances were homogeneous (no significant difference in F-values), the analysis was performed by the Tukey's method, and if the variances were not homogeneous (significant difference in F-values), the test was performed by the Games-Howell method. P<0.05 was considered as a significant difference.

O=C1NC2(CC2)COc2ncc(F)cc2[C@H]2CCON2c2ccn3ncc1c3n2 [Compound of Formula (I)]
IC50 [1]: 13 nM | IC50 [2]: 16.1 nM | IC50 [3]: 3.4 nM | IC50 [4]: 7 nM | IC50 [5]: 3.6 nM | IC50 [6]: 0.4 nM | IC50 [7]: 2.07 nM | IC50 [8]: 0.14 nM | IC50 [9]: 0.14 nM | Apparent Clearance Cl ([10]; IV @ 1 mpk, male CD-1 mice): 0.378 L/h/kg | Drug Concentration in Cerebrospinal Fluid at 0.5 h ([10]; PO @ 3 mpk, CSF, 0.5 h): 63 nmol/kg | Drug Concentration in Cerebrospinal Fluid at 2 h ([10]; PO @ 3 mpk, CSF, 2 h): 21 nmol/kg | Drug Concentration in Brain at 0.5 h ([10]; PO @ 3 mpk, brain, 0.5 h): 663 nmol/kg | Drug Concentration in Brain at 2 h ([10]; PO @ 3 mpk, brain, 2 h): 343 nmol/kg | Vd ([10]; mouse, plasma, 1 mg/kg, IV @ 1 mpk, male CD-1 mice, read-out: Apparent Distribution Volume Vd): 0.57 L/kg | AUC(0-inf) ([10]; mouse, plasma, 1 mg/kg, IV @ 1 mpk, male CD-1 mice): 6.69 µM·h | half-life ([10]; mouse, plasma, 1 mg/kg, IV @ 1 mpk, male CD-1 mice, read-out: Half-life T1/2 (converted)): 52.8 min | C0 ([10]; mouse, plasma, 1 mg/kg, IV @ 1 mpk, male CD-1 mice, read-out: Initial Concentration C0): 3.71 µM | bioavailability ([10]; mouse, plasma, 3 mg/kg, PO @ 3 mpk vs IV @ 1 mpk, male CD-1 mice, read-out: Bioavailability F %): 76% | AUC(0-inf) ([10]; mouse, plasma, 3 mg/kg, PO @ 3 mpk, male CD-1 mice): 19.8 µM·h | Cmax ([10]; mouse, plasma, 3 mg/kg, PO @ 3 mpk, male CD-1 mice, read-out: Peak Concentration Cmax): 4.74 µM | Tmax ([10]; mouse, plasma, 3 mg/kg, PO @ 3 mpk, male CD-1 mice, read-out: Time to Peak Tmax): 15 min | T/C ([11]; 3 mg/kg BID): 9.57% | TGI ([11]; 3 mg/kg BID): 118.02% | T/C ([11]; 15 mg/kg BID): 3.07% | TGI ([11]; 15 mg/kg BID): 126.88% | T/C ([11]; 30 mg/kg BID): 1.87% | TGI ([11]; 30 mg/kg BID): 128.36%
